System: not listed separately
Experiment: in vitro
Details: African green monkey, uninfected quiescent Vero-B cells
COc1cc(NC(C(=O)c2c[nH]c3cc(Cl)ccc23)c2cn3ccccc3n2)ccn1 (stereo not shown) [CPD-069] showed a CC50 at 4 days of 71 µM. With O=C(O)c1cccc(NC(C(=O)c2c[nH]c3ccccc23)c2ccccc2)c1 (stereo not shown) [CPD-071] the CC50 at 4 days was 135 µM. Work on COc1cc(NC(C(=O)c2c[nH]c3ccccc23)c2ccccc2)ncn1 (stereo not shown) [CPD-072] yielded a CC50 at 4 days of 68 µM. COc1cc(NC(C(=O)c2c[nH]c3cc(Cl)ccc23)c2ccccc2)ccn1 (stereo not shown) [CPD-073] gave a CC50 at 4 days of 76 µM. COc1cc(NC(C(=O)c2c[nH]c3ccccc23)c2cccnc2)ccn1 (stereo not shown) [CPD-074] showed a CC50 at 4 days of 77 µM. For COc1cc(NC(C(=O)c2c[nH]c3cc(F)ccc23)c2ccccc2)ccn1 (stereo not shown) [CPD-075], the CC50 at 4 days was 102 µM. Compound COc1ccc2c(C(=O)C(Nc3ccnc(OC)c3)c3ccccc3)c[nH]c2c1 (stereo not shown) [CPD-076] has a CC50 at 4 days of 115 µM. Work on COc1ccc2[nH]cc(C(=O)C(Nc3ccnc(OC)c3)c3ccccc3)c2c1 (stereo not shown) [CPD-078] yielded a CC50 at 4 days of 109 µM. In the case of COc1cccc(NC(C(=O)c2c[nH]c3ccccc23)c2cn3c(n2)COCC3)c1 (stereo not shown) [CPD-080], the CC50 at 4 days is reported as greater than 124 µM. Compound COc1cc(NC(C(=O)c2c[nH]c3ccccc23)c2cn3c(F)cccc3n2)ccn1 (stereo not shown) [CPD-081] has a CC50 at 4 days of 50 µM. COc1cc(NC(C(=O)c2c[nH]c3ccccc23)c2cscn2)ccn1 (stereo not shown) [CPD-082] gave a CC50 at 4 days of 109 µM. Work on COC(=O)c1ccc2c(C(=O)C(Nc3cccc(OC)c3)c3ccccc3)c[nH]c2c1 (stereo not shown) [CPD-085] yielded a CC50 at 4 days of 16 µM. With COc1cccc(NC(C(=O)c2c[nH]c3ccccc23)c2cn3cccc(C)c3n2)c1 (stereo not shown) [CPD-088] the CC50 at 4 days was greater than 121 µM. In the case of COc1ccnc(NC(C(=O)c2c[nH]c3ccccc23)c2ccccc2)n1 (stereo not shown) [CPD-089], the CC50 at 4 days is reported as greater than 139 µM. For COc1cc(NC(C(=O)c2c[nH]c3ccccc23)c2ccc(F)cc2)ccn1 (stereo not shown) [CPD-090], the CC50 at 4 days was 13 µM. Compound COc1cc(NC(C(=O)c2c[nH]c3cc(C#N)ccc23)c2ccccc2)ccn1 (stereo not shown) [CPD-093] has a CC50 at 4 days of 87 µM. Compound COc1cccc(NC(C(=O)c2c[nH]c3cc(C#N)ccc23)c2ccccc2)c1 (stereo not shown) [CPD-094] has a CC50 at 4 days of 11 µM. For COc1cccc(NC(C(=O)c2c[nH]c3ccccc23)c2cn3ccc(C)cc3n2)c1 (stereo not shown) [CPD-096], the CC50 at 4 days was greater than 121 µM. Compound COc1cc(NC(C(=O)c2c[nH]c3ccccc23)c2ccc3[nH]ccc3c2)ccn1 (stereo not shown) [CPD-097] has a CC50 at 4 days of 12 µM. COc1cccc(NC(C(=O)c2c[nH]c3ccccc23)c2cn3cc(C)ccc3n2)c1 (stereo not shown) [CPD-098] gave a CC50 at 4 days greater than 121 µM. In the case of COc1cc(NC(C(=O)c2c[nH]c3ccc(Cl)cc23)c2ccccc2)ccn1 (stereo not shown) [CPD-099], the CC50 at 4 days is reported as 12 µM. COc1cc(NC(C(=O)c2cn(C)c3ccccc23)c2ccccc2)ccn1 (stereo not shown) [CPD-100] gave a CC50 at 4 days of 42 µM. COc1cc(NC(C(=O)c2c[nH]c3c(Cl)cccc23)c2ccccc2)ccn1 (stereo not shown) [CPD-101] gave a CC50 at 4 days of 11 µM. With COc1cccc(NC(C(=O)c2c[nH]c3ccccc23)c2cc(C)no2)c1 (stereo not shown) [CPD-102] the CC50 at 4 days was 65 µM. In the case of CCn1nccc1C(Nc1cccc(OC)c1)C(=O)c1c[nH]c2ccccc12 (stereo not shown) [CPD-107], the CC50 at 4 days is reported as 20 µM. Work on COc1cccc(NC(C(=O)c2c[nH]c3ccccc23)c2cn3c(F)cccc3n2)c1 (stereo not shown) [CPD-109] yielded a CC50 at 4 days of 84 µM. COc1cccc(NC(C(=O)c2c[nH]c3ccccc23)c2cn3cc(F)ccc3n2)c1 (stereo not shown) [CPD-110] gave a CC50 at 4 days of 73 µM. For COc1cccc(NC(C(=O)c2cn(S(C)(=O)=O)c3ccccc23)c2ccccc2)c1 (stereo not shown) [CPD-111], the CC50 at 4 days was greater than 115 µM. COc1cccc(NC(C(=O)c2c[nH]c3ccccc23)c2ccc(COCN(C)C)cc2)c1 (stereo not shown) [CPD-112] showed a CC50 at 4 days of 12 µM. For COc1cccc(N2C(=O)CN(C)n3cc(c4ccccc43)C(=O)C2c2ccccc2)c1 (stereo not shown) [CPD-115], the CC50 at 4 days was 49 µM. In the case of COc1cccc(NC(C(=O)c2cn(C)c3ccccc23)c2cc(C)on2)c1 (stereo not shown) [CPD-117], the CC50 at 4 days is reported as greater than 133 µM. For COc1cc(NC(C(=O)c2cn(S(C)(=O)=O)c3ccccc23)c2ccccc2)ccn1 (stereo not shown) [CPD-121], the CC50 at 4 days was 60 µM. For COc1cccc(NC(C(=O)c2c[nH]c3ccccc23)c2ccc(CN(C)C)cc2)c1 (stereo not shown) [CPD-124], the CC50 at 4 days was 3 µM. With COc1cccc(NC(C(=O)c2c[nH]c3ccccc23)c2[nH]cnc2C)c1 (stereo not shown) [CPD-125] the CC50 at 4 days was greater than 138 µM. For COc1cccc(NC(C(=O)c2c[nH]c3ccccc23)c2ccc(CO)cc2)c1 (stereo not shown) [CPD-127], the CC50 at 4 days was 72 µM.

System: DENV-2 NGC
Experiment: Antiviral activity against DENV-2 NGC in Vero-B cells (viral RNA load by RT-qPCR)
Assay type: cell-based, Dengue virus
Details: Dengue virus, DENV2, Vero B, DENV-2 in Vero-B cells; inhibition of viral RNA replication by 50% (Table 3)
In the case of COc1cc(NC(C(=O)c2c[nH]c3cc(Cl)ccc23)c2cn3ccccc3n2)ccn1 (stereo not shown) [CPD-069], the EC50 is reported as 2130 nM. Work on O=C(O)c1cccc(NC(C(=O)c2c[nH]c3ccccc23)c2ccccc2)c1 (stereo not shown) [CPD-071] yielded an EC50 of 60800 nM. In the case of COc1cc(NC(C(=O)c2c[nH]c3ccccc23)c2ccccc2)ncn1 (stereo not shown) [CPD-072], the EC50 is reported as 6840 nM. Compound COc1cc(NC(C(=O)c2c[nH]c3cc(Cl)ccc23)c2ccccc2)ccn1 (stereo not shown) [CPD-073] has an EC50 of 2350 nM. In the case of COc1cc(NC(C(=O)c2c[nH]c3ccccc23)c2cccnc2)ccn1 (stereo not shown) [CPD-074], the EC50 is reported as 810 nM. For COc1cc(NC(C(=O)c2c[nH]c3cc(F)ccc23)c2ccccc2)ccn1 (stereo not shown) [CPD-075], the EC50 was 1520 nM. Work on COc1ccc2c(C(=O)C(Nc3ccnc(OC)c3)c3ccccc3)c[nH]c2c1 (stereo not shown) [CPD-076] yielded an EC50 of 3770 nM. Compound COc1ccc2[nH]cc(C(=O)C(Nc3ccnc(OC)c3)c3ccccc3)c2c1 (stereo not shown) [CPD-078] has an EC50 of 11600 nM. COc1cccc(NC(C(=O)c2c[nH]c3ccccc23)c2cn3c(n2)COCC3)c1 (stereo not shown) [CPD-080] gave an EC50 of 990 nM. COc1cc(NC(C(=O)c2c[nH]c3ccccc23)c2cn3c(F)cccc3n2)ccn1 (stereo not shown) [CPD-081] showed an EC50 of 10800 nM. For COc1cc(NC(C(=O)c2c[nH]c3ccccc23)c2cscn2)ccn1 (stereo not shown) [CPD-082], the EC50 was 61800 nM. COC(=O)c1ccc2c(C(=O)C(Nc3cccc(OC)c3)c3ccccc3)c[nH]c2c1 (stereo not shown) [CPD-085] gave an EC50 of 70 nM. Compound COc1cccc(NC(C(=O)c2c[nH]c3ccccc23)c2cn3cccc(C)c3n2)c1 (stereo not shown) [CPD-088] has an EC50 of 2530 nM. In the case of COc1ccnc(NC(C(=O)c2c[nH]c3ccccc23)c2ccccc2)n1 (stereo not shown) [CPD-089], the EC50 is reported as 670 nM. In the case of COc1cc(NC(C(=O)c2c[nH]c3ccccc23)c2ccc(F)cc2)ccn1 (stereo not shown) [CPD-090], the EC50 is reported as 2900 nM. For COc1cc(NC(C(=O)c2c[nH]c3cc(C#N)ccc23)c2ccccc2)ccn1 (stereo not shown) [CPD-093], the EC50 was 16800 nM. Compound COc1cccc(NC(C(=O)c2c[nH]c3cc(C#N)ccc23)c2ccccc2)c1 (stereo not shown) [CPD-094] has an EC50 of 140 nM. COc1cccc(NC(C(=O)c2c[nH]c3ccccc23)c2cn3ccc(C)cc3n2)c1 (stereo not shown) [CPD-096] gave an EC50 of 2900 nM. COc1cc(NC(C(=O)c2c[nH]c3ccccc23)c2ccc3[nH]ccc3c2)ccn1 (stereo not shown) [CPD-097] showed an EC50 of 2320 nM. Work on COc1cccc(NC(C(=O)c2c[nH]c3ccccc23)c2cn3cc(C)ccc3n2)c1 (stereo not shown) [CPD-098] yielded an EC50 of 10700 nM. Compound COc1cc(NC(C(=O)c2c[nH]c3ccc(Cl)cc23)c2ccccc2)ccn1 (stereo not shown) [CPD-099] has an EC50 of 1760 nM. Compound COc1cc(NC(C(=O)c2cn(C)c3ccccc23)c2ccccc2)ccn1 (stereo not shown) [CPD-100] has an EC50 of 12000 nM. With COc1cc(NC(C(=O)c2c[nH]c3c(Cl)cccc23)c2ccccc2)ccn1 (stereo not shown) [CPD-101] the EC50 was 4900 nM. Compound COc1cccc(NC(C(=O)c2c[nH]c3ccccc23)c2cc(C)no2)c1 (stereo not shown) [CPD-102] has an EC50 of 620 nM. With CCn1nccc1C(Nc1cccc(OC)c1)C(=O)c1c[nH]c2ccccc12 (stereo not shown) [CPD-107] the EC50 was 7880 nM. For COc1cccc(NC(C(=O)c2c[nH]c3ccccc23)c2cn3c(F)cccc3n2)c1 (stereo not shown) [CPD-109], the EC50 was 530 nM. With COc1cccc(NC(C(=O)c2c[nH]c3ccccc23)c2cn3cc(F)ccc3n2)c1 (stereo not shown) [CPD-110] the EC50 was 580 nM. COc1cccc(NC(C(=O)c2cn(S(C)(=O)=O)c3ccccc23)c2ccccc2)c1 (stereo not shown) [CPD-111] showed an EC50 of 440 nM. In the case of COc1cccc(NC(C(=O)c2c[nH]c3ccccc23)c2ccc(COCN(C)C)cc2)c1 (stereo not shown) [CPD-112], the EC50 is reported as 3270 nM. COc1cccc(N2C(=O)CN(C)n3cc(c4ccccc43)C(=O)C2c2ccccc2)c1 (stereo not shown) [CPD-115] gave an EC50 of 10600 nM. Compound COc1cccc(NC(C(=O)c2cn(C)c3ccccc23)c2cc(C)on2)c1 (stereo not shown) [CPD-117] has an EC50 of 3570 nM. In the case of COc1cc(NC(C(=O)c2cn(S(C)(=O)=O)c3ccccc23)c2ccccc2)ccn1 (stereo not shown) [CPD-121], the EC50 is reported as 5760 nM. For COc1cccc(NC(C(=O)c2c[nH]c3ccccc23)c2ccc(CN(C)C)cc2)c1 (stereo not shown) [CPD-124], the EC50 was 560 nM. Compound COc1cccc(NC(C(=O)c2c[nH]c3ccccc23)c2[nH]cnc2C)c1 (stereo not shown) [CPD-125] has an EC50 of 7190 nM. In the case of COc1cccc(NC(C(=O)c2c[nH]c3ccccc23)c2ccc(CO)cc2)c1 (stereo not shown) [CPD-127], the EC50 is reported as 2150 nM.

Source: patent US12012411B2, “Viral replication inhibitors” (Katholieke Universiteit Leuven, priority 2011, dated 2024)
